Measurements: paper PMC7435778, “Bidirectional Modulation of the Voltage-Gated Sodium (Nav1.6) Channel by Rationally Designed Peptidomimetics” (Molecules, 2020)
Like-named read-outs stand apart in the source and are kept apart here. Starred links: 1 amine or outer side, 2 acyl side, 3 side chain; linkers in the order of their positions; H or OH if unused. Non-standard residues stand in square brackets, D forms with d. Residues, ends and D or L forms follow the SMILES beside them. *: point of attachment. Tyr(OtBu) = CC(C)(C)Oc1ccc(C[C@H](N[*:1])C(=O)[*:2])cc1; Glu(OtBu) = CC(C)(C)OC(=O)CC[C@H](N[*:1])C(=O)[*:2]; Fmoc = O=C(OCC1c2ccccc2-c2ccccc21)*; Decanoyl = CCCCCCCCCC(=O)*; Cbz = O=C(OCc1ccccc1)*; Boc = CC(C)(C)OC(=O)*; Bz = O=C(c1ccccc1)*; OtBu = CC(C)(C)O*; tBu = CC(C)(C)*

T1: FGF14 (Homo sapiens, UniProt Q92915)
T1 sequence (Q92915 64-252 isoform Q92915-2): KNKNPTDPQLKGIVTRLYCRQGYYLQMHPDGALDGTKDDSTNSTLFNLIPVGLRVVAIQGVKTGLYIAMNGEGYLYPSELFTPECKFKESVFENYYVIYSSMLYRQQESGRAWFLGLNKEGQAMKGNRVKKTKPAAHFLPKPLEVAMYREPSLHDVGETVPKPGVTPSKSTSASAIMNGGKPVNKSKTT

T2: fibroblast growth factor 14 (FGF14), aa 64–252 (UniProt Q92915)
T2 sequence: T1 sequence (Q92915 64-252 isoform Q92915-2)

B1: compound 19 (PW0204) (peptide)
peptide: Bz-[Glu(OtBu)][Tyr(OtBu)][Tyr(OtBu)]V-NH2
SMILES: CC(C)[C@H](NC(=O)[C@H](Cc1ccc(OC(C)(C)C)cc1)NC(=O)[C@H](Cc1ccc(OC(C)(C)C)cc1)NC(=O)[C@H](CCC(=O)OC(C)(C)C)NC(=O)c1ccccc1)C(N)=O
B2: compound 17 (PW0203) (peptide)
peptide: Ac-[Glu(OtBu)][Tyr(OtBu)][Tyr(OtBu)]V-NH2
SMILES: CC(=O)N[C@@H](CCC(=O)OC(C)(C)C)C(=O)N[C@@H](Cc1ccc(OC(C)(C)C)cc1)C(=O)N[C@@H](Cc1ccc(OC(C)(C)C)cc1)C(=O)N[C@H](C(N)=O)C(C)C
B3: compound 22 (PW0207) (peptide)
peptide: Decanoyl-[Glu(OtBu)][Tyr(OtBu)][Tyr(OtBu)]V-NH2
SMILES: CCCCCCCCCC(=O)N[C@@H](CCC(=O)OC(C)(C)C)C(=O)N[C@@H](Cc1ccc(OC(C)(C)C)cc1)C(=O)N[C@@H](Cc1ccc(OC(C)(C)C)cc1)C(=O)N[C@H](C(N)=O)C(C)C

Tests used:
[1] = molecular target: T3, Nav1.6 channel (Homo sapiens, UniProt Q9UQD0); assay: Whole-cell patch-clamp electrophysiology in HEK-Nav1.6 cells; type: cell-based; conditions: 20 µM; for Tau of Fast Inactivation: at −10 mV, DMSO 1.17 ± 0.09; for Long Term Inactivation, depolarization cycle 4 (INa/INa,Cycle 1) / Long Term Inactivation, depolarization cycle 3 (INa/INa,Cycle 1) / Long Term Inactivation, depolarization cycle 2 (INa/INa,Cycle 1): fraction of channels available; for Long Term Inactivation, depolarization cycle 4 (INa/INa,Cycle 1): DMSO 0.85 ± 0.04; for Long Term Inactivation, depolarization cycle 3 (INa/INa,Cycle 1): DMSO 0.86 ± 0.03; for Long Term Inactivation, depolarization cycle 2 (INa/INa,Cycle 1): DMSO 0.89 ± 0.03; for V1/2 of Steady-state Inactivation: DMSO –58.58 ± 1.90
T3 construct: expressed in transfected cells
T3 sequence (Q9UQD0 whole entry): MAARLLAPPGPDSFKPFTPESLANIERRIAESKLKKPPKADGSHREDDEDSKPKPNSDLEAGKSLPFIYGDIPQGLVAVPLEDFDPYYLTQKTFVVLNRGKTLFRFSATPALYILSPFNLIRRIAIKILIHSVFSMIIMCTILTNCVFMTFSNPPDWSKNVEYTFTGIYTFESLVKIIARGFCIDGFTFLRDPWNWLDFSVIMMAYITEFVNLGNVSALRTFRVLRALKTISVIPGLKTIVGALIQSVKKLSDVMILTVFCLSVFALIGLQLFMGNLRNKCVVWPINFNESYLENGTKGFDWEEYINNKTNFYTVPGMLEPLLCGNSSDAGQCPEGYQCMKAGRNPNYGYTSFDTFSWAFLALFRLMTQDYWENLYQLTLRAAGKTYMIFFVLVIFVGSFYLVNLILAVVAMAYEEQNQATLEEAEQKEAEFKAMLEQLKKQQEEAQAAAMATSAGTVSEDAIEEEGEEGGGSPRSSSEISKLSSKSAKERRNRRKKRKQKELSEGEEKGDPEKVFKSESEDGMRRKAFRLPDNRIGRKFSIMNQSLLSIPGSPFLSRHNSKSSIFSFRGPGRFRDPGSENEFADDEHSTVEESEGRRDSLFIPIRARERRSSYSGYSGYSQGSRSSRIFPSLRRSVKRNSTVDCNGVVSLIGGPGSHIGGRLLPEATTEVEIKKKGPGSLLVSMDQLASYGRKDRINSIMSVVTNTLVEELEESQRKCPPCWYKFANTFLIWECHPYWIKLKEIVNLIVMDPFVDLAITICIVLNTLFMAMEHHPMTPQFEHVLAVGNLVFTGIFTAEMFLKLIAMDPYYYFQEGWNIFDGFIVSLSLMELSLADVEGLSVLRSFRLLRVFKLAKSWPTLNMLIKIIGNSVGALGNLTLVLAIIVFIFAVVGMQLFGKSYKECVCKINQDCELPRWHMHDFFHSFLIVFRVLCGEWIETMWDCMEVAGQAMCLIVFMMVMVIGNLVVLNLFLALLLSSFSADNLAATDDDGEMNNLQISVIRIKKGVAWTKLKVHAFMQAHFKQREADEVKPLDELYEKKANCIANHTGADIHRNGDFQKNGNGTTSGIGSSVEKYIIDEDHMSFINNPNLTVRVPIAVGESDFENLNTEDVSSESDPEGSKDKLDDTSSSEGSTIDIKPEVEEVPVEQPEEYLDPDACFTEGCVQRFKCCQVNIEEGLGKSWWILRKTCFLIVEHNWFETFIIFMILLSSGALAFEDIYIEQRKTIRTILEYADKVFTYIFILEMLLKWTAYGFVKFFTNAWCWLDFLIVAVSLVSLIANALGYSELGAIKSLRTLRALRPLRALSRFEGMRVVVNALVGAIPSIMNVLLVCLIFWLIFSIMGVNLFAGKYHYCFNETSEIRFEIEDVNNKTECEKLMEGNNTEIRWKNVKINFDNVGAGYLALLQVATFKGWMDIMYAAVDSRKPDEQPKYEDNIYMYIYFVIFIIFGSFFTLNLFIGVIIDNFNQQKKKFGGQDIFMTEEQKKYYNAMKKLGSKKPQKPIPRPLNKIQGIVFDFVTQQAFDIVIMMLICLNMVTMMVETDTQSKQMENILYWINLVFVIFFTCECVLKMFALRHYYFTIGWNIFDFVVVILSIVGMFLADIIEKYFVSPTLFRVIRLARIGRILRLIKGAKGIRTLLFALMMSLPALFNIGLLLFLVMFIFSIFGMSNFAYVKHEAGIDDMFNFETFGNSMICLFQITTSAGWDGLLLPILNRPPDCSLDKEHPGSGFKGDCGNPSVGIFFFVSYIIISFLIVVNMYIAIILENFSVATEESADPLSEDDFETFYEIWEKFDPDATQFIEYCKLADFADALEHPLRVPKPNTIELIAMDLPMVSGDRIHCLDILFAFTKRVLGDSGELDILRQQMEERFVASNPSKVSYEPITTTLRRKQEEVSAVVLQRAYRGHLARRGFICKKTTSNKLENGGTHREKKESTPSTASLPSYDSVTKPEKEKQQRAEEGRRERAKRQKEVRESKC
Protocol: As such, in an effort to further investigate their seemingly inverse activities, 12 and 19 were selected for functional evaluation as modulators of Nav1.6. To do so, HEK293 cells stably expressing Nav1.6 (HEK-Nav1.6) were incubated for 30 min with 0.1% DMSO (control), 20 µM 12, or 20 µM 19. After incubation, the modulatory effects of these peptidomimetics on Nav1.6-mediated currents were assessed using whole-cell patch-clamp electrophysiology (Figure 5 and Table 4).
HEK293 cells were maintained in Dulbecco’s Modified Eagle Medium (DMEM) and F-12 (Invitrogen, Carlsbad, CA, USA), supplemented with 0.05% glucose, 0.5 mM pyruvate, 10% fetal bovine serum, 100 units/mL penicillin, and 100 µg/mL streptomycin (Invitrogen), and incubated at 37 °C with 5% CO2. The double stable HEK293 cell line expressing CD4-Nav1.6C-tail-NLuc and CLuc-FGF14 used for LCA experiments was described in a previous study and was maintained using selective antibiotics (0.5 mg/mL G418 and 5 µg/mL puromycin). HEK293 cells stably expressing the human Nav1.6 channel (hereafter referred to as HEK-Nav1.6 cells) were maintained similarly, except for the addition of 500 μg/mL G418 (Invitrogen) to maintain stable Nav1.6 expression. Cells were transfected at 80–90% confluence with equal amount (1 μg each) of plasmid pairs using Lipofectamine 3000 (Invitrogen, Waltham, MA, USA) according to the manufacturer’s instructions. HEK-Nav1.6 cells were washed and re-plated at very low density prior to electrophysiological recordings.
HEK293 cells stably expressing Nav1.6 (HEK-Nav1.6) were grown in culture as described above. Prior to experimentation, HEK-Nav1.6 cells were dissociated using Gibco TrypLE (Thermo Fisher Scientific, Walthman, MA, USA) and plated at low density onto glass coverslips situated at the base of wells in CELLSTAR® 24-Well Multi-Well Plates (Greiner Bio-One, Monroe, NC, USA). Cells were then incubated on glass cover slips for 2–3 h. After incubation, glass cover slips were transferred to the recording chamber containing 3 mL of extracellular solution comprised of the following salts (mM): 140 NaCl, 3 KCl, 1 MgCl2, 1 CaCl2, 10 HEPES, 10 glucose, pH 7.3. After incubating for thirty minutes in the extracellular solution containing either DMSO or experimental compound, recordings were then performed at room temperature (20–22 °C) using a MultiClamp 700B amplifier (Molecular Devices, Sunnyvale, CA) and borosilicate glass pipettes (resistance of 3–6 MΩ) containing intracellular solution comprised of the following salts (mM): 130 CH3O3SCs, 1 ethylene glycol tetraacetic acid (EGTA), 10 NaCl, 10 HEPES, pH 7.3. Dial settings on the amplifier were used to estimate membrane capacitance and series resistance and compensated for electronically by 70–80%. Prior to digitization and storage, data were acquired at 20 kHz and filtered at 5 kHz. Clampex 9.2 software (Molecular Devices), interfaced to the electrophysiological equipment using a Digidata 1200 analog-digital interface (Molecular Devices), was used to control all experimental parameters. To assess the relationship of INa and voltage, HEK-Nav1.6 cells were evoked by depolarizations to test potentials ranging from –100 to +60 mV from a holding potential of −70 mV, followed by a voltage pre-step pulse of −120 mV. To assess steady-state inactivation of Nav channels, HEK-Nav1.6 cells were evoked using a paired-pulse protocol in which cells were stepped, from the holding potential, to varying test potentials ranging from −120 to +20 mV (pre-pulse) prior to a test pulse to −20 mV.

[2] = molecular target: T1, FGF14; assay: Surface plasmon resonance binding to FGF14; conditions: for koff: read-out: koff FGF14; for kon: read-out: kon FGF14
Protocol: The determined kon and koff rate constants provide important information about interaction mechanisms and compound properties, enabling investigation of SARs and the rational modification of compounds. Therefore, we used SPR to assess and compare the binding of peptidomimetics to FGF14 and Nav1.6 C-terminal tail protein. Proteins were purified as previously described [31, 36], immobilized to CM5 sensor chips, and increasing concentrations of compounds (0.195–100 µM) were flown over the chips at 60 µL/min.
The two plasmids (pET28a-FGF14; pET30a-Nav1.6) for protein expression and purification of FGF14 (accession number NP_787125; aa 64–252) and Nav1.6 C-tail (accession number #NP_001171455; aa 1763–1912) have been previously described [36, 45] and were transformed into E. coli BL21 (DE3) pLys (Invitrogen). Cells were grown until OD600 = 0.7, and the recombinant proteins were expressed after induction with 0.1 mM isopropyl thio-β-D-galacto-pyranoside (IPTG) for 24 h at 16 °C. Cells were harvested and lysed by sonication at 4 °C in lysis/binding buffer containing the following components (mM): 10 sodium phosphate (prepared from 0.5 M of Na2HPO4 and NaH2PO4), 25 4-(2-hydroxyethyl)-1-piperazineethanesulfonic acid (HEPES), 150 NaCl, phenyl methyl sulphonyl fluoride (PMSF) 0.1, 3-((3-cholamidopropyl) dimethylammonio)-1-propanesulfonate (CHAPS) 0.1% pH 7.0 (for FGF14), and with glycerol 10% (for Nav1.6 C-tail) pH 7.5. The respective proteins were centrifuged at 40,000× g for 1 h at 4 °C. For purification of FGF14, the supernatant was applied to pre-equilibrated heparin and the proteins were then eluted with NaCl 0.2–2.0 M (sodium phosphate 10 mM, NaCl 0.2–2.0 M, pH 7.0) buffer. For purification of Nav1.6 C-tail, the supernatant was first applied to a cobalt column (Thermo Fisher Scientific) and eluted with imidazole (200 mM). The Nav1.6 C-tail was further purified using a HiTrap Q Sepharose Fast Flow column (GE Healthcare, Pittsburgh, PA, USA) using a buffer containing Tris-HCl 50 mM and eluted with NaCl (10–500 mM) at pH 7.5. Finally, all concentrated proteins were purified on an AKTA^TM fast protein liquid chromatography (FPLC) using a Superdex 200 HiLoad 16 × 60 column and equilibrated in Tris-HCl 50 mM + NaCl 150 mM, pH 7.5 (GE Healthcare Bio-Sciences, Chicago, IL, USA). Protein concentrations were determined using UV absorbance with a Thermo NANODROP.
SPR experiments were performed on a Biacore T100 instrument (GE Healthcare, Chicago, IL, USA). Proteins were immobilized on CM5 sensor chips using 10 mM sodium acetate buffer (pH 5.5) with the Amine Coupling Kit (GE Healthcare), as per the manufacturer’s instructions, to a final RU value of 17,896 for FGF14 and 6,800 for Nav1.6 C-tail. No protein was coupled to the control flow channels of the chip (Lanes 1 and 3). The interaction of experimental compounds against FGF14 and Nav1.6 proteins were studied at 25 °C using a flow rate of 60 µL/min. Compounds were serially diluted (0.195–200 µM) in PBS supplemented with Tween-20 0.005% and 2% DMSO. Each sample was injected over the chip for 120 s followed by a dissociation period of 150 s, and finally, chip surface regeneration (600 mM NaCl, 5% DMSO) for 120 s. Each compound was tested over at least two independent experiments with concentrations of 0.195, 0.39, 0.78, 1.56, 3.12, 6.25, 12.5, 25, 50, 100, and 200 µM, including 12.5 and 25 µM, and blanks (buffer alone) in duplicate. A DMSO calibration was performed for each experiment (1.5–2.8% (v/v) DMSO) to correct for bulk refractive index shifts [48].

[3] = test system: HEK293 cells (Clone V cells); conditions: positive control with known toxicity; cited from earlier work
[4] = molecular target: T3, Nav1.6 channel; set-up: method as in PMID 30587448; conditions: previously reported, cited from earlier work
[5] = test system: MSNs of the NAc; set-up: method as in PMID 29359916; conditions: previously reported; cited from earlier work
[6] = molecular target: T2, fibroblast growth factor 14 (FGF14), aa 64–252; assay: SPR; Biacore T100; FGF14 (17,896 RU) or Nav1.6 C-tail (6,800 RU) amine-coupled to CM5 chips; compounds 0.195–200 µM flowed at 60 µL/min, 25 °C, PBS with 0.005% Tween-20 and 2% DMSO; KD is the average of the 1:1 Langmuir kinetic fit and the steady-state fit
[7] = molecular target: T2, fibroblast growth factor 14 (FGF14), aa 64–252; assay: as above; remark: listed apart in the source

Molecule	koff [2] [s⁻¹]	kon [2] [M⁻¹ s⁻¹]	Kd [6] [µM]	koff [6] [s⁻¹]	kon [6] [M⁻¹ s⁻¹]	further results
CC(C)[C@H](NC(=O)[C@H](Cc1ccc(OC(C)(C)C)cc1)NC(=O)[C@H](Cc1ccc(OC(C)(C)C)cc1)NC(=O)OCC1c2ccccc2-c2ccccc21)C(N)=O [Compound 12, (9H-fluoren-9-yl)methyl ((S)-1-(((S)-1-(((S)-1-amino-3-methyl-1-oxobutan-2-yl)amino)-3-(4-(tert-butoxy)phenyl)-1-oxopropan-2-yl)amino)-3-(4-(tert-butoxy)phenyl)-1-oxopropan-2-yl)carbamate] (Fmoc-Tyr(tBu)-Tyr(tBu)-Val-NH2)	0.0186	6440				Tau of Fast Inactivation ([1]; mean ± SEM): 1.30 ± 0.11 (7) ms; Long Term Inactivation, depolarization cycle 4 (INa/INa,Cycle 1) [1]: 0.70 ± 0.04 (7); Long Term Inactivation, depolarization cycle 3 (INa/INa,Cycle 1) [1]: 0.76 ± 0.03; Long Term Inactivation, depolarization cycle 2 (INa/INa,Cycle 1) [1]: 0.88 ± 0.03; V1/2 of Activation ([1]; mean ± SEM, DMSO –20.04 ± 0.85): –20.40 ± 0.89 (10) mV; V1/2 of Steady-state Inactivation ([1]; mean ± SEM): –57.59 ± 0.56 (6) mV
CC(=O)N[C@@H](CCC(=O)OC(C)(C)C)C(=O)N[C@@H](Cc1ccc(OC(C)(C)C)cc1)C(=O)N[C@@H](Cc1ccc(OC(C)(C)C)cc1)C(=O)N[C@H](C(N)=O)C(C)C [Compound 17, tert-butyl (S)-4-acetamido-5-(((S)-1-(((S)-1-(((S)-1-amino-3-methyl-1-oxobutan-2-yl)amino)-3-(4-(tert-butoxy)phenyl)-1-oxopropan-2-yl)amino)-3-(4-(tert-butoxy)phenyl)-1-oxopropan-2-yl)amino)-5-oxopentanoate] (Ac-E(OtBu)Y(tBu)Y(tBu)V-NH2)	0.088	6030				
CC(C)[C@H](NC(=O)[C@H](Cc1ccc(OC(C)(C)C)cc1)NC(=O)[C@H](Cc1ccc(OC(C)(C)C)cc1)NC(=O)[C@H](CCC(=O)OC(C)(C)C)NC(=O)c1ccccc1)C(N)=O [Compound 19, tert-butyl (S)-5-(((S)-1-(((S)-1-(((S)-1-amino-3-methyl-1-oxobutan-2-yl)amino)-3-(4-(tert-butoxy)phenyl)-1-oxopropan-2-yl)amino)-3-(4-(tert-butoxy)phenyl)-1-oxopropan-2-yl)amino)-4-benzamido-5-oxopentanoate] (Bz-E(OtBu)Y(tBu)Y(tBu)V-NH2)	0.013	2060				Tau of Fast Inactivation ([1]; mean ± SEM): 1.12 ± 0.07 (7) ms; Long Term Inactivation, depolarization cycle 4 (INa/INa,Cycle 1) [1]: 0.73 ± 0.03 (8); Long Term Inactivation, depolarization cycle 3 (INa/INa,Cycle 1) [1]: 0.73 ± 0.02; Long Term Inactivation, depolarization cycle 2 (INa/INa,Cycle 1) [1]: 0.83 ± 0.02; V1/2 of Steady-state Inactivation ([1]; mean ± SEM): –58.53 ± 1.69 (8) mV; Fold increase in binding to FGF14 ([2]; 19 relative to 17 (Ac to benzoyl)): approximately 2 fold
CCCCCCCCCC(=O)N[C@@H](CCC(=O)OC(C)(C)C)C(=O)N[C@@H](Cc1ccc(OC(C)(C)C)cc1)C(=O)N[C@@H](Cc1ccc(OC(C)(C)C)cc1)C(=O)N[C@H](C(N)=O)C(C)C [Compound 22, tert-Butyl (S)-5-(((S)-1-(((S)-1-(((S)-1-amino-3-methyl-1-oxobutan-2-yl)amino)-3-(4-(tert-butoxy)phenyl)-1-oxopropan-2-yl)amino)-3-(4-(tert-butoxy)phenyl)-1-oxopropan-2-yl)amino)-4-decanamido-5-oxopentanoate] (Decanoyl-E(OtBu)Y(tBu)Y(tBu)V-NH2)	0.109	690				
CC/C(=C(\c1ccccc1)c1ccc(OCCN(C)C)cc1)c1ccccc1 [Tamoxifen]						Toxicity toward HEK293 cells [3]: toxic
CC(C)C[C@H](NC(=O)[C@H](Cc1ccccc1)NC(=O)OCc1ccccc1)C(=O)N1CCC[C@H]1C(=O)N[C@@H](CCCCNC(=O)OC(C)(C)C)C(N)=O [ZL0177] (Cbz-FLPK(Boc)-NH2)						Nav1.6-mediated peak current density [4]: –26.65 ± 6.3 pA/pF; Voltage-dependence of Nav1.6 channel activation ([4]; whole-cell patch-clamp): depolarizing shift in voltage-dependence of Nav1.6 channel activation
COC(=O)[C@H](CCCCNC(=O)OCC1c2ccccc2-c2ccccc21)NC(=O)[C@@H]1CCCN1C(=O)[C@H](CC(C)C)NC(=O)[C@H](Cc1ccccc1)NC(C)=O [ZL181] (Ac-FLPK(Fmoc)-OMe)						Firing frequencies in MSNs of the NAc [5]: decreased maximal and instantaneous firing frequencies
B1			6.49	0.013	2060	Kd [7]: 6.3 µM
B2			14.3	0.088	6030	
B3			> 100	0.109	690	
